# Experimental data reported in article PMC10066365, “Nemacol is a small molecule inhibitor of C. elegans vesicular acetylcholine transporter with anthelmintic potential” (Nature Communications, 2023).
# “And” between values parts separate entries of the source, which are not always exact repeats. Identical values can stand only once.
# Key:
# Type in all cases: in vivo, Caenorhabditis elegans
# [1] = Motor phenotype time course on 60 μM Nemacol-1, EMB-8 disruption vs wild type; conditions: N2, 60µM, count per bio rep
# [2] = system: C. elegans emb-8(hc69); emb-8(RNAi); assay: as above; conditions: for adult worms C1 (loose coil) / adult worms C2 (tight coil) / adult worms NP (no phene) / adult worms J (jerky-unc): count per bio rep
# [3] = system: C. elegans; assay: as above
# [4] = N2, 60µM, 1h, average of 3 biological repeats
# [5] = N2, 60µM, 4h, average of 3 biological repeats
# [6] = N2, 60µM, 6h, average of 3 biological repeats
# [7] = N2, 60µM, 24h, average of 3 biological repeats
# [8] = emb-8, 60µM, 1h, average of 3 biological repeats
# [9] = emb-8, 60µM, 4h, average of 3 biological repeats
# [10] = emb-8, 60µM, 6h, average of 3 biological repeats
# [11] = emb-8, 60µM, 24h, average of 3 biological repeats
smiles,measurement,setting,value
O=[N+]([O-])c1ccc(N2CCN(CC3CCCCC3)CC2)cc1 [Nemacol-1],adult worms P (paralyzed),[1]; 6h,0
same,adult worms P (paralyzed),[1]; 24h,0
same,Fraction Coiled,[2]; [4],0.5185
same,Fraction Jerky-Unc,[2]; [4],0.2778
same,Fraction Parayzed,[2]; [4],0.2037
same,adult worms C1 (loose coil),"[2]; N2, 60µM, 1h",4 and 3 and 5
same,adult worms C2 (tight coil),"[2]; N2, 60µM, 1h",6 and 4
same,adult worms NP (no phene),"[2]; N2, 60µM, 1h",0
same,Fraction Coiled,"[2]; N2, 60µM, 1h, per bio rep",0.5000 and 0.5556
same,Fraction Coiled,[2]; [5],0.1111
same,Fraction Jerky-Unc,[2]; [5],0.2963
same,Fraction Parayzed,[2]; [5],0.0185
same,adult worms J (jerky-unc),"[2]; N2, 60µM, 4h",7 and 5 and 4
same,adult worms NP (no phene),"[2]; N2, 60µM, 4h",7 and 14 and 10
same,Fraction Jerky-Unc,"[2]; N2, 60µM, 4h, per bio rep",0.2222 and 0.3889 and 0.2778
same,Fraction Coiled,[2]; [6],0.0556
same,Fraction Jerky-Unc,[2]; [6],0.2037
same,Fraction Parayzed,[2]; [6],0.0000
same,adult worms J (jerky-unc),"[2]; N2, 60µM, 6h",3 and 5
same,adult worms NP (no phene),"[2]; N2, 60µM, 6h",15 and 10
same,Fraction Jerky-Unc,"[2]; N2, 60µM, 6h, per bio rep",0.1667 and 0.2778
same,Fraction Parayzed,"[2]; N2, 60µM, 6h, per bio rep",0.0000
same,Fraction Coiled,[2]; [7],0.0000
same,Fraction Jerky-Unc,[2]; [7],0.0000
same,Fraction Parayzed,[2]; [7],0.0000
same,adult worms C1 (loose coil),"[2]; N2, 60µM, 24h",0
same,adult worms C2 (tight coil),"[2]; N2, 60µM, 24h",0
same,adult worms J (jerky-unc),"[2]; N2, 60µM, 24h",0
same,adult worms NP (no phene),"[2]; N2, 60µM, 24h",18
same,Fraction Coiled,"[2]; N2, 60µM, 24h, per bio rep",0.0000
same,Fraction Jerky-Unc,"[2]; N2, 60µM, 24h, per bio rep",0.0000
same,Fraction Parayzed,"[2]; N2, 60µM, 24h, per bio rep",0.0000
same,Fraction Coiled,[2]; [8],0.5000
same,Fraction Jerky-Unc,[2]; [8],0.2778
same,Fraction Parayzed,[2]; [8],0.2222
same,adult worms C1 (loose coil),"[2]; emb-8, 60µM, 1h",3 and 4
same,adult worms C2 (tight coil),"[2]; emb-8, 60µM, 1h",6 and 4
same,adult worms J (jerky-unc),"[2]; emb-8, 60µM, 1h",5 and 4 and 6
same,adult worms NP (no phene),"[2]; emb-8, 60µM, 1h",0
same,Fraction Coiled,"[2]; emb-8, 60µM, 1h, per bio rep",0.5556 and 0.5000 and 0.4444
same,Fraction Jerky-Unc,"[2]; emb-8, 60µM, 1h, per bio rep",0.3333 and 0.2778 and 0.2222
same,Fraction Coiled,[2]; [9],0.1481
same,Fraction Jerky-Unc,[2]; [9],0.3889
same,Fraction Parayzed,[2]; [9],0.4630
same,adult worms NP (no phene),"[2]; emb-8, 60µM, 4h",0
same,Fraction Coiled,[2]; [10],0.3704
same,Fraction Jerky-Unc,[2]; [10],0.2778
same,Fraction Parayzed,[2]; [10],0.3519
same,adult worms C2 (tight coil),"[2]; emb-8, 60µM, 6h",4 and 3
same,adult worms NP (no phene),"[2]; emb-8, 60µM, 6h",0
same,Fraction Coiled,[2]; [11],0.2963
same,Fraction Jerky-Unc,[2]; [11],0.2222
same,Fraction Parayzed,[2]; [11],0.4815
same,adult worms NP (no phene),"[2]; emb-8, 60µM, 24h",0
same,Fraction Coiled,"[2]; emb-8, 60µM, 24h, per bio rep",0.3333 and 0.2222
same,Fraction No Phenotype,[3]; [4],0.0000
same,Fraction No Phenotype,"[3]; N2, 60µM, 1h, per bio rep",0.0000
same,Fraction No Phenotype,[3]; [5],0.5741
same,Fraction No Phenotype,"[3]; N2, 60µM, 4h, per bio rep",0.3889 and 0.5556 and 0.7778
same,Fraction No Phenotype,[3]; [6],0.7407
same,Fraction No Phenotype,"[3]; N2, 60µM, 6h, per bio rep",0.8333 and 0.5556
same,Fraction No Phenotype,[3]; [7],1.0000
same,Fraction No Phenotype,"[3]; N2, 60µM, 24h, per bio rep",1.0000
same,Fraction No Phenotype,[3]; [8],0.0000
same,Fraction No Phenotype,"[3]; emb-8, 60µM, 1h, per bio rep",0.0000
same,Fraction No Phenotype,[3]; [9],0.0000
same,Fraction No Phenotype,"[3]; emb-8, 60µM, 4h, per bio rep",0.0000
same,Fraction No Phenotype,[3]; [10],0.0000
same,Fraction No Phenotype,"[3]; emb-8, 60µM, 6h, per bio rep",0.0000
same,Fraction No Phenotype,[3]; [11],0.0000
same,Fraction No Phenotype,"[3]; emb-8, 60µM, 24h, per bio rep",0.0000
